Test results taken from patent publication US11904021B2, “Dual targeting and therapeutic nanoparticle for treating renal fibrosis” (The Chinese University of Hong Kong, priority 2020, dated 2024).
Values joined by “and” are separate entries in the source; they are usually repeats but may differ in a detail not shown here. Identical values can stand only once. “Also recorded” adds a separate entry of the source.

How the values were obtained:
[1] = system: UUO mice; assay: In vivo toxicity test (organ histology, blood biochemistry, hematology); design: species or system Balb/c mice; conditions: 7 days post-injection, efficacy dose
Protocol: Liver, heart, and spleen samples were fixed in 10% buffered formalin for 48 h and then stored in PBS at 4° C. Paraffin-embedded tissue sections of 4 μm thick were stained with hematoxylin and eosin for the tissue morphology by light microscopy. Blood, collected via an intracardiac puncture, was stored in a plain tube for biochemistry tests and in EDTA-coated tubes (Becton Dickinson) for hematology analysis. The blood samples were kept on ice and later sent to PathLab (Hong Kong) for analysis on the same day.

[2] = system: α-smooth muscle actin (a-SMA); assay: Anti-fibrosis efficacy: IHC of α-SMA in UUO kidney; type: in vivo, Balb/c mice; conditions: Day 14 post-UUO surgery
Protocol: (§1) Mouse kidney tissue—Two slides from each kidney were selected for each set of stains such that two section-containing slides were at least 200 μm away from each other. IHC staining was performed on paraffin sections using the microwave-based antigen retrieval technique^32. Tissue sections were deparaffinized and rehydrated to water. After placing the slides in citrate buffer (10 mM citric acid, pH 6.0), the slides were heated in the microwave oven for 3 min under high power (˜95-100° C.) and for 20 more min under low power. After cooling the slides in the heated solution for 30 min, they were rinsed in distilled water twice and in PBS for 5 min. Next, the slides were blocked with 2.5% normal horse serum (Vector Laboratories) for 2 h and incubated with 60 μL of primary antibodies [1 μg/mL for type I collagen (1310-01; Southern BioTech), 0.048 μg/mL for α-SMA (ab150301; Abcam)) 0.625 μg/mL for folate receptor (ab67422; Abcam), 1.25 μg/mL for CD3 (ab16669; Abcam), 1.25 μg/mL for Wnt5b (ab93134; Abcam), and pre-diluted β-catenin (ab15180; Abcam)] at 4° C. overnight. […]
(§2) The major measurable outcome was the expression level of collagen I, as quantified by the percentage area of IHC staining in the kidney sections. […]

[3] = system: type I collagen; assay: Anti-fibrosis efficacy: IHC of type I collagen in UUO kidney; type: in vivo, Balb/c mice; conditions: for fractional area of type I collagen in UUO kidney: Day 14 post-UUO surgery (7 days post injection)
Protocol: Mouse kidney tissue—Two slides from each kidney were selected for each set of stains such that two section-containing slides were at least 200 μm away from each other. IHC staining was performed on paraffin sections using the microwave-based antigen retrieval technique^32. Tissue sections were deparaffinized and rehydrated to water. After placing the slides in citrate buffer (10 mM citric acid, pH 6.0), the slides were heated in the microwave oven for 3 min under high power (˜95-100° C.) and for 20 more min under low power. After cooling the slides in the heated solution for 30 min, they were rinsed in distilled water twice and in PBS for 5 min. Next, the slides were blocked with 2.5% normal horse serum (Vector Laboratories) for 2 h and incubated with 60 μL of primary antibodies [1 μg/mL for type I collagen (1310-01; Southern BioTech), 0.048 μg/mL for α-SMA (ab150301; Abcam)) 0.625 μg/mL for folate receptor (ab67422; Abcam), 1.25 μg/mL for CD3 (ab16669; Abcam), 1.25 μg/mL for Wnt5b (ab93134; Abcam), and pre-diluted β-catenin (ab15180; Abcam)] at 4° C. overnight. Slides were then washed in PBS and treated with 3% H2O2 (Merck Millipore) for 30 min, rinsed again, and incubated with ˜50 μL of secondary antibodies (ImmPRESS HRP Polymer detection Kit, Vector Laboratories) for 30 min. The sections were developed sequentially by using 3,3′-diaminobenzidine (DAB) enzyme substrate (ImmPACT™ DAB, Vector Laboratories) for 2 min. All slides were counter-stained with Mayer's hematoxylin for 3 min, washed in distilled water, dried in 90% ethanol, and mounted by using xylene-based mounting medium. Bright-field images were acquired using the Nikon Eclipse Ni (DS-Ri2) microscope.
FA was dissolved in sterile BioPerformance Certified DMSO (Sigma) and formulated in D5W prior to injection. The final concentration of DMSO was less than 1%. […]
as §2

[4] = system: UUO mice with established renal fibrosis; assay: Efficacy study in UUO mice: kidney degeneration (gross appearance, histology, kidney weight, blood creatinine); type: in vivo, Balb/c mice; conditions: treatment from Day 7, sacrifice Day 14 post-UUO surgery
Protocol: Mouse model of renal fibrosis was induced by the UUO surgery as previously described^12,29. Mice were anesthetized by an intraperitoneal injection of ketamine (100 mg/kg; Alfasan International B.V.) and xylazine (10 mg/kg; Alfasan International B.V.). The peritoneum was cut along the midline, and the left ureter was isolated and ligated twice by using a 5-0 suture (NingBo Cheng-He Microsurgical Instruments). The bowel was laid back and the peritoneum was closed with suture. The mice were placed under a heating lamp to maintain body temperature until they recovered from anesthesia. For analgesia, three injections of buprenorphine (Temgesic, 0.05 mg/kg) were given to the mice subcutaneously every 12 h after the surgery. To verify the development of fibrosis, the mice were sacrificed by cervical dislocation with anesthesia, and their kidneys were weighted (see FIG. 4) and processed for histological analysis (see FIGS. 5A-5C).
FA was dissolved in sterile BioPerformance Certified DMSO (Sigma) and formulated in D5W prior to injection. The final concentration of DMSO was less than 1%. Au3-PEG500-FA NPs formulated in D5W was injected i.v. at a dose of 0.12 mg-FA/kg-mouse (or equivalently 2.5 mg-Au/kg-mouse). […]
as §2

[5] = neutral conditions, literature ref 45; cited from earlier work
[6] = system: type I collagen (gene ID: Col1a1); assay: Transcriptomic analysis (RNA-seq) of UUO kidneys; type: in vivo, Balb/c mice; conditions: UUO kidney, 48 h post-injection, individual replicates 1-3
Protocol: UUO mice were i.v. injected with Au3-PEG500-FA NPs (i.e., […]) or free (i.e., 0.12 mg-FA/kg-mouse) on Day 7 after UUO surgery, at the same dosage used for the efficacy studies. An untreated group of UUO mice was also included as control. On Day 9 after UUO surgery (i.e., 48 h post-injection), the mice were sacrificed and the UUO kidneys were harvested. After cutting the UUO kidneys in half using a scalpel, one set of the halved kidneys was fixed in buffered formalin while the other set was snap frozen in liquid nitrogen and stored at −80° C. The formalin-fixed samples were dehydrated as mentioned above and embedded in paraffin blocks to generate tissue sections for validating the RNA-seq data. The frozen samples were sent to Beijing Genomics Institute (BGI) for RNA extraction, RNA library construction, and bioinformatic analysis. A total of 9 samples were sequenced using the BGISEQ platform, with ˜4.57 Gb generated per sample. The average mapping ratio with reference genome is 94.33%. Differential expressed genes (DEGs) detection, gene ontology analysis of DEG, and other analysis based on gene expression were performed by BGI. Further analysis of the DEGs was performed by filtering the list of DEGs with a FPKM threshold of 2 for at least 6 out of the 9 UUO samples tested.
Animals were sacrificed on Day 9. […]

[7] = system: CD3+ T cells; assay: Anti-fibrosis efficacy: IHC of CD3+ T cell infiltration in UUO kidney; type: in vivo, Balb/c mice; conditions: Day 14 post-UUO surgery
Protocol: as §1, §2

| Compound | histological examination of liver, heart, and spleen [1] | area with positive α-SMA in the UUO kidney [2] [%] | fractional area of type I collagen in UUO kidney [3] [%] | gross tissue degeneration of UUO kidney [4] | solubility in water [5] | type I collagen protein expression in UUO kidney versus saline group ([3]; 48 h post-injection (Day 9)) | Expression level (FPKM) for type I collagen [6] | mean population of CD3+ T cells [7] [cells/frame] |
| --- | --- | --- | --- | --- | --- | --- | --- | --- |
| C[C@H](CS)C(=O)N1CCC[C@H]1C(=O)O [Captopril] | did not observe noticeable toxicity | 12.5 | 13.5 | – | – | – | – | – |
| Nc1nc2ncc(CNc3ccc(C(=O)N[C@@H](CCC(=O)O)C(=O)O)cc3)nc2c(=O)[nH]1 [free FA, folic acid] | did not observe noticeable toxicity | 10.7 | 11.2 | rescued the UUO kidney from tissue degeneration; also recorded: did not degenerate | poorly soluble in water | lower type I collagen protein expression than the saline group | 185.4 FPKM and 80.71 FPKM and 18.57 FPKM | 13 |
